Reference: US7888342B2, “Methods of treating fibromyalgia syndrome, chronic fatigue syndrome and pain” (Cypress Bioscience, Inc., priority 2001, dated 2011)

Assays:
[1] = tested on: patient experiencing fatigue and fibromyalgia; conditions: lofepramine 70 mg bd in combination with L-phenylalanine 500 mg bd; persisted for more than six months; cited from earlier work
[2] = tested on: patients with fibromyalgia syndrome (FMS); test: Example 5: multicenter, double-blind, randomized, placebo-controlled monotherapy study of milnacipran for fibromyalgia; assay type: in vivo, human; conditions: 3-months
Description: This was a multicenter, randomized, double-blind, placebo-controlled three-arm study designed which enrolled 1196 patients who meet the 1990 ACR criteria for fibromyalgia syndrome (history of widespread pain and pain in 11 of 18 tender point sites on digital palpation), as well as the more detailed admission criteria outlined in the protocol. […] All randomized medications (placebo and milnacipran) were administered twice a day (BID). (i) Primary Efficacy Assessments: Patient Global Impression of Change (PGIC) administered to patients at visits […] Tx15/ET; Physical Component summary of SF-36 (SF-36 PCS) administered to patients at visits BL2/Tx0, […]) Secondary Efficacy Assessments: Time weighted average (AUC) of weekly average PED morning recall pain score; PGIC and SF-36 PCS administered to patients at visits Tx3 to Tx15. (iii) Additional Efficacy Measurements: The Fibromyalgia Impact Questionnaire (FIQ) total score and physical function, Beck Depression Inventory (BDI), the MOS-Sleep Index Scale, the Arizona Sexual Experiences Scale (ASEX), Patient pain 24 hour and 7 day recall VAS, the SF-36 individual domains, Patient Global Disease Status, Patient Global Therapeutic Benefit, the Multiple Ability Self-report Questionnaire (MASQ, cognitive function), the Multidimensional Health Assessment Questionnaire (MDHAQ), Multidimensional Fatigue Inventory (MFI), and diary assessments including current pain (morning, random daily, and evening reports); overall pain past week (weekly report), overall fatigue in the last week (weekly report), and the extent that pain kept the patient from caring for themselves (weekly report). The primary efficacy assessment of this study was a composite responder status defined by three domains of interest evaluated at visit Tx15. The domains measured were The primary efficacy parameter for an indication in the treatment of pain of fibromyalgia was the composite responder status based on the morning recall pain as recorded in the PED and patient global as recorded on the PGIC at Visit Tx15. The primary efficacy parameter for an indication in the treatment of FMS was the composite responder status based on two domains of pain and patient global as used above in the primary efficacy parameter for the treatment of the pain of fibromyalgia plus the additional domain of physical function as measured by the SF-36 PCS at Visit Tx15. […] A patient was classified as a responder for the treatment of FMS if he or she satisfied the responder criteria for the treatment of pain of fibromyalgia and the following additional criterion (at visit Tx15): • Improvement on the SF-36 PCS score from baseline by an amount at least equivalent to the minimal clinically important difference, as defined in the Statistical Analysis Plan. Table 1 summarizes 3-month results for the Baseline Observation Carried Forward (BOCF), Last Observation Carried Forward (LOCF) and study completer (OC) populations. LOCF is an analysis in which observations are carried forward to the last time point for patients who dropped out. The LOCF analysis treats the carried-forward data as observed data at the last time point. BOCF is an analysis that requires that the patient remain active in the trial to be evaluated for response. If a patient withdrew from the trial for any reason, they were classified as a non-responder irregardless of their pain and global scores at the time of withdrawal.

NMDA receptor = conditions: read-out: IC50, NMDA receptor antagonistic properties; cited from earlier work

## CN(CCCN1c2ccccc2CCc2ccccc21)CC(=O)c1ccc(Cl)cc1 [lofepramine]
[1]
  effect on fatigue and fibromyalgia: considerable improvement in fatigue and fibromyalgia

## CCN(CC)C(=O)[C@]1(c2ccccc2)C[C@@H]1CN (racemic) [milnacipran, cis-(±)-2-(aminomethyl)-N,N-diethyl-1-phenyl-cyclopropanecarboxamide]
[2]; BOCF, 100 mg/day (399)
  Composite Pain responder rate, difference from placebo: 6.35%
  Composite Pain responders, number: 91
  Composite Pain responders, percent: (22.81%)
  Composite Syndrome responder rate, difference from placebo: 5.81%
  Composite Syndrome responders, number: 58
  Composite Syndrome responders, percent: (14.54%)
  PGIC Component responder rate, difference from placebo: 8.39%
  PGIC Component responders, number: 125
  PGIC Component responders, percent: (31.33%)
  Pain Component responder rate, difference from placebo: 5.89%
  Pain Component responders, number: 124
  Pain Component responders, percent: (31.08%)
  SF36 PCS Component responder rate, difference from placebo: 5.62%
  SF36 PCS Component responders, number: 108
  SF36 PCS Component responders, percent: (27.07%)
[2]; BOCF, 200 mg/day (396)
  Composite Pain responder rate, difference from placebo: 8.29%
  Composite Pain responders, number: 98
  Composite Pain responders, percent: (24.75%)
  Composite Syndrome responder rate, difference from placebo: 5.16%
  Composite Syndrome responders, number: 55
  Composite Syndrome responders, percent: (13.89%)
  PGIC Component responder rate, difference from placebo: 9.64%
  PGIC Component responders, number: 129
  PGIC Component responders, percent: (32.58%)
  Pain Component responder rate, difference from placebo: 4.86%
  Pain Component responders, number: 119
  Pain Component responders, percent: (30.05%)
  SF36 PCS Component responder rate, difference from placebo: 1.02%
  SF36 PCS Component responders, number: 89
  SF36 PCS Component responders, percent: (22.47%)
[2]; LOCF, 100 mg/day (399)
  Composite Pain responder rate, difference from placebo: 7.61%
  Composite Pain responders, number: 103
  Composite Pain responders, percent: (25.81%)
  Composite Syndrome responder rate, difference from placebo: 6.56%
  Composite Syndrome responders, number: 65
  Composite Syndrome responders, percent: (16.29%)
  PGIC Component responder rate, difference from placebo: 9.65%
  PGIC Component responders, number: 138
  PGIC Component responders, percent: (34.59%)
  Pain Component responder rate, difference from placebo: 8.66%
  Pain Component responders, number: 149
  Pain Component responders, percent: (37.34%)
  SF36 PCS Component responder rate, difference from placebo: 6.89%
  SF36 PCS Component responders, number: 129
  SF36 PCS Component responders, percent: (32.33%)
[2]; LOCF, 200 mg/day (396)
  Composite Pain responder rate, difference from placebo: 11.35%
  Composite Pain responders, number: 117
  Composite Pain responders, percent: (29.55%)
  Composite Syndrome responder rate, difference from placebo: 6.68%
  Composite Syndrome responders, number: 65
  Composite Syndrome responders, percent: (16.41%)
  PGIC Component responder rate, difference from placebo: 13.19%
  PGIC Component responders, number: 151
  PGIC Component responders, percent: (38.13%)
  Pain Component responder rate, difference from placebo: 11.22%
  Pain Component responders, number: 158
  Pain Component responders, percent: (39.90%)
  SF36 PCS Component responder rate, difference from placebo: 2.09%
  SF36 PCS Component responders, number: 109
  SF36 PCS Component responders, percent: (27.53%)
[2]; OC, 100 mg/day
  Composite Pain responder rate, difference from placebo: 13.37%
  Composite Pain responders, percent: (38.56%)
  Composite Pain, m/n = # of responders/# of patients included: 91/236
  Composite Syndrome responder rate, difference from placebo: 11.22%
  Composite Syndrome responders, percent: (24.58%)
  Composite Syndrome, m/n = # of responders/# of patients included: 58/236
  PGIC Component responder rate, difference from placebo: 15.70%
  PGIC Component responders, percent: (47.53%)
  PGIC Component, m/n = # of responders/# of patients included: 125/263
  Pain Component responder rate, difference from placebo: 13.92%
  Pain Component responders, percent: (52.32%)
  Pain Component, m/n = # of responders/# of patients included: 124/237
  SF36 PCS Component responder rate, difference from placebo: 11.40%
  SF36 PCS Component responders, percent: (41.06%)
  SF36 PCS Component, m/n = # of responders/# of patients included: 108/263
[2]; OC, 200 mg/day
  Composite Pain responder rate, difference from placebo: 20.39%
  Composite Pain responders, percent: (45.58%)
  Composite Pain, m/n = # of responders/# of patients included: 98/215
  Composite Syndrome responder rate, difference from placebo: 12.22%
  Composite Syndrome responders, percent: (25.58%)
  Composite Syndrome, m/n = # of responders/# of patients included: 55/215
  PGIC Component responder rate, difference from placebo: 18.76%
  PGIC Component responders, percent: (50.59%)
  PGIC Component, m/n = # of responders/# of patients included: 129/255
  Pain Component responder rate, difference from placebo: 16.44%
  Pain Component responders, percent: (54.84%)
  Pain Component, m/n = # of responders/# of patients included: 119/217
  SF36 PCS Component responder rate, difference from placebo: 5.24%
  SF36 PCS Component responders, percent: (34.90%)
  SF36 PCS Component, m/n = # of responders/# of patients included: 89/255
NMDA receptor
  IC50: ~6.3 µM
